Measured values reported in patent US9371296B2, “Bicyclic 1,3,4-oxadiazole derivatives as sphingosine-1-phosphate receptors' modulators” (Allergan, Inc., priority 2014, dated 2016).

Target: T1, human S1P1 receptor (Homo sapiens, UniProt P21453)
T1 construct: expressed in transfected cells; membranes used
Assay: GTP γ35S binding assay for S1P1 activity
Format: biochemical
Conditions: 5 microgram membrane protein, test compounds 0.08 to 5,000 nM, 30 min at 25° C.
Description: Compounds were synthesized and tested for S1P1 activity using the GTP γ^35S binding assay. These compounds may be assessed for their ability to activate or block activation of the human S1P1 receptor in cells stably expressing the S1P1 receptor.
GTP γ^35S binding was measured in medium containing (mM) HEPES 25, pH 7.4, MgCl2 10, NaCl 100, dithiothreitol 0.5, digitonin 0.003%, 0.2 nM GTP γ^35S, and 5 microgram membrane protein in a volume of 150 microliters. Test compounds were included in the concentration range from 0.08 to 5,000 nM unless indicated otherwise. Membranes were incubated with 100 μM 5′-adenylylimmidodiphosphate for 30 min, and subsequently with 10 micromolar GDP for 10 min on ice. Drug solutions and membrane were mixed, and then reactions were initiated by adding GTP γ^35S and continued for 30 min at 25° C. Reaction mixtures were filtered over Whatman GF/B filters under vacuum, and washed three times with 3 mL of ice-cold buffer (HEPES 25, pH7.4, MgCl2 10 and NaCl 100). Filters were dried and mixed with scintillant, and counted for ^35S activity using a β-counter. Agonist-induced GTP γ^35S binding was obtained by subtracting that in the absence of agonist. Binding data were analyzed using a non-linear regression method. In case of antagonist assay, the reaction mixture contained 10 nM […] in the presence of test antagonist at concentrations ranging from 0.08 to 5000 nM.

T1 sequence (P21453 whole entry): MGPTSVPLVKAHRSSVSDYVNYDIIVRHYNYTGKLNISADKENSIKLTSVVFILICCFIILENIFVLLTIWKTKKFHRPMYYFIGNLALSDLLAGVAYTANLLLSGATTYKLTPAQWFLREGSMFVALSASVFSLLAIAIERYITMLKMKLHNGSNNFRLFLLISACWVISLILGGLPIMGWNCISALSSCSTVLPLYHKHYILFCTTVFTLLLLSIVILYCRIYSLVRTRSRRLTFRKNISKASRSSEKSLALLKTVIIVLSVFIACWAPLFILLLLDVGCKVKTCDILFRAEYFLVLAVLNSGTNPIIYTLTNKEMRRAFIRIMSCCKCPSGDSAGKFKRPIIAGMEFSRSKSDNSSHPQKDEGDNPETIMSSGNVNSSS

In order of falling EC50:
1. CCCCCC(Cc1nnc(-c2ccc(CN3CC(C(=O)O)C3)c3ncccc23)o1)c1ccccc1 (stereo not drawn) [Compound 24, 1-({5-[5-(2-phenylheptyl)-1,3,4-oxadiazol-2-yl]quinolin-8-yl}methyl)azetidine-3-carboxylic acid]  1090 nM
2. CCCCCC(Cc1nnc(-c2ccc(CN3CC(C(=O)O)C3)c3ccccc23)o1)c1ccccc1 (stereo not drawn) [Compound 17, 1-({4-[5-(2-phenylheptyl)-1,3,4-oxadiazol-2-yl]naphthalen-1-yl}methyl)azetidine-3-carboxylic acid]  942 nM
3. CCC/C(=C\c1nnc(-c2ccc(CN3CC(C(=O)O)C3)c3ccccc23)o1)c1ccccc1 [Compound 13, 1-[(4-{5-[(1E)-2-phenylpent-1-en-1-yl]-1,3,4-oxadiazol-2-yl}naphthalen-1-yl)methyl]azetidine-3-carboxylic acid]  607 nM
4. CCC/C(=C\c1nnc(-c2ccc(CNCCC(=O)O)c3ccccc23)o1)c1ccccc1 [Compound 2, 3-{[(4-{5-[(1E)-2-phenylpent-1-en-1-yl]-1,3,4-oxadiazol-2-yl}naphthalen-1-yl)methyl]amino}propanoic acid]  571 nM
5. CCCC(Cc1nnc(-c2ccc(CN3CC(C(=O)O)C3)c3ncccc23)o1)c1ccccc1 (stereo not drawn) [Compound 18, 1-({5-[5-(2-phenylpentyl)-1,3,4-oxadiazol-2-yl]quinolin-8-yl}methyl)azetidine-3-carboxylic acid]  461 nM
6. CCCCCC(Cc1nnc(-c2ccc(CNCCC(=O)O)c3ncccc23)o1)c1ccccc1 (stereo not drawn) [Compound 20, 3-[({5-[5-(2-phenylheptyl)-1,3,4-oxadiazol-2-yl]quinolin-8-yl}methyl)amino]propanoic acid]  417 nM
7. CCCCC(Cc1nnc(-c2ccc(CN3CC(C(=O)O)C3)c3ncccc23)o1)c1ccccc1 (stereo not drawn) [Compound 23, 1-({5-[5-(2-phenylhexyl)-1,3,4-oxadiazol-2-yl]quinolin-8-yl}methyl)azetidine-3-carboxylic acid]  376 nM
8. CCCC(Cc1nnc(-c2ccc(CNCCC(=O)O)c3ncccc23)o1)c1ccccc1 (stereo not drawn) [Compound 12, 3-[({5-[5-(2-phenylpentyl)-1,3,4-oxadiazol-2-yl]quinolin-8-yl}methyl)amino]propanoic acid]  340 nM
9. CCCCCC(Cc1nnc(-c2ccc(CNCCC(=O)O)c3ccccc23)o1)c1ccccc1 (stereo not drawn) [Compound 10, 3-[({4-[5-(2-phenylheptyl)-1,3,4-oxadiazol-2-yl]naphthalen-1-yl}methyl)amino]propanoic acid]  320 nM
10. CCCCC(Cc1nnc(-c2ccc(CNCCC(=O)O)c3ncccc23)o1)c1ccccc1 (stereo not drawn) [Compound 19, 3-[({5-[5-(2-phenylhexyl)-1,3,4-oxadiazol-2-yl]quinolin-8-yl}methyl)amino]propanoic acid]  257 nM
11. (E)-1-((5-(5-(2-phenylpent-1-en-1-yI)-1,3,4-oxadiazol-2-yl)quinolin-8-yl)methyl)azetidine-3-carboxylic acid [Compound 15]  163 nM
12. CCCC/C(=C\c1nnc(-c2ccc(CN3CC(C(=O)O)C3)c3ccccc23)o1)c1ccccc1 [Compound 14, 1-[(4-{5-[(1E)-2-phenylhex-1-en-1-yl]-1,3,4-oxadiazol-2-yl}naphthalen-1-yl)methyl]azetidine-3-carboxylic acid]  156 nM
13. CCC/C(=C\c1nnc(-c2ccc(CNCCC(=O)O)c3ncccc23)o1)c1ccccc1 [Compound 6, 3-{[(5-{5-[(1E)-2-phenylpent-1-en-1-yl]-1,3,4-oxadiazol-2-yl}quinolin-8-yl)methyl]amino}propanoic acid]  150 nM
14. CCCC/C(=C\c1nnc(-c2ccc(CNCCC(=O)O)c3ccccc23)o1)c1ccccc1 [Compound 4, 3-{[(4-{5-[(1E)-2-phenylhex-1-en-1-yl]-1,3,4-oxadiazol-2-yl}naphthalen-1-yl)methyl]amino}propanoic acid]  85 nM
15. CCCC/C(=C\c1nnc(-c2ccc(CNCCC(=O)O)c3ncccc23)o1)c1ccccc1 [Compound 8, 3-{[(5-{5-[(1E)-2-phenylhex-1-en-1-yl]-1,3,4-oxadiazol-2-yl}quinolin-8-yl)methyl]amino}propanoic acid]  33 nM
16. CCCC/C(=C\c1nnc(-c2ccc(CN3CC(C(=O)O)C3)c3ncccc23)o1)c1ccccc1 [Compound 16, 1-[(5-{5-[(1E)-2-phenylhex-1-en-1-yl]-1,3,4-oxadiazol-2-yl}quinolin-8-yl)methyl]azetidine-3-carboxylic acid]  29 nM
17. CCC/C(=C\c1nnc(-c2ccc(CNCCCP(=O)(O)O)c3ccccc23)o1)c1ccccc1 [Compound 1, (3-{[(4-{5-[(1E)-2-phenylpent-1-en-1-yl]-1,3,4-oxadiazol-2-yl}naphthalen-1-yl)methyl]amino}propyl)phosphonic acid]  27 nM
18. CCCCCC(Cc1nnc(-c2ccc(CNCCCP(=O)(O)O)c3ccccc23)o1)c1ccccc1 (stereo not drawn) [Compound 9, {3-[({4-[5-(2-phenylheptyl)-1,3,4-oxadiazol-2-yl]naphthalen-1-yl}methyl)amino]propyl}phosphonic acid]  14 nM
19. CCCCCC(Cc1nnc(-c2ccc(CNCCCP(=O)(O)O)c3ncccc23)o1)c1ccccc1 (stereo not drawn) [Compound 22, {3-[({5-[5-(2-phenylheptyl)-1,3,4-oxadiazol-2-yl]quinolin-8-yl}methyl)amino]propyl}phosphonic acid]  2.87 nM
20. CCCC/C(=C\c1nnc(-c2ccc(CNCCCP(=O)(O)O)c3ccccc23)o1)c1ccccc1 [Compound 3, (3-{[(4-{5-[(1E)-2-phenylhex-1-en-1-yl]-1,3,4-oxadiazol-2-yl}naphthalen-1-yl)methyl]amino}propyl) phosphonic acid]  2.52 nM
21. CCCCC(Cc1nnc(-c2ccc(CNCCCP(=O)(O)O)c3ncccc23)o1)c1ccccc1 (stereo not drawn) [Compound 21, {3-[({5-[5-(2-phenylhexyl)-1,3,4-oxadiazol-2-yl]quinolin-8-yl}methyl)amino]propyl}phosphonic acid]  1.05 nM
22. CCC/C(=C\c1nnc(-c2ccc(CNCCCP(=O)(O)O)c3ncccc23)o1)c1ccccc1 [Compound 5, (3-{[(5-{5-[(1E)-2-phenylpent-1-en-1-yl]-1,3,4-oxadiazol-2-yl}quinolin-8-yl)methyl]amino}propyl) phosphonic acid]  0.61 nM
23. CCCC/C(=C\c1nnc(-c2ccc(CNCCCP(=O)(O)O)c3ncccc23)o1)c1ccccc1 [Compound 7, (3-{[(5-{5-[(1E)-2-phenylhex-1-en-1-yl]-1,3,4-oxadiazol-2-yl}quinolin-8-yl)methyl]amino}propyl) phosphonic acid]  0.5 nM
24. CCCC(Cc1nnc(-c2ccc(CNCCCP(=O)(O)O)c3ncccc23)o1)c1ccccc1 (stereo not drawn) [Compound 11, {3-[({5-[5-(2-phenylpentyl)-1,3,4-oxadiazol-2-yl]quinolin-8-yl}methyl)amino]propyl}phosphonic acid]  0.26 nM
